Results taken from US10703764B2, “Benzopiperazine compositions as BET bromodomain inhibitors” (FORMA Therapeutics, Inc., priority 2013, dated 2020).
pIC50: −log10 of the molar value.

What was measured:
MV4-11 cells = experiment: Oncology cell growth assay (3-day proliferation, CellTiter-Glo); format: cell-based; settings: Homo sapiens, MV4-11, 72 h, AML cell line MV4-11, 72 hours, compounds grouped by IC50 range, read-out: MV4-11 IC50 (inhibition of proliferation, gIC50)
Procedure, shortened: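 72 h, 37° C, 5% CO2; MV4-11, 3000 cells/well, RPMI 1640 + 10% FBS. Compound final 10, 3.3, 1.1, 0.37, 0.12, 0.041, 0.013, 0.0045 μM. Readout CellTiter-Glo luminescence; gIC50 by 4-parameter logistic fit, normalised to DMSO and no-cell background.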

BRD4 BD1 = biological target: T1, BRD4 BD1 (Homo sapiens, UniProt O60885); experiment: AlphaScreen binding assay, BRD4 Bromodomain 1
T1 construct: made in house
Procedure, shortened: (§1)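 Compound dilution series were mixed with His-tagged BRD4 bromodomain and biotinylated tetra-acetylated H4 (1-21) peptide at pH 7.3 (BD1 and peptide at 50 nM, BD2 and peptide at 100 nM). Donor and acceptor beads were then added, and plates were equilibrated at least 1 h before reading. IC50 values were fitted with a four-parameter logistic model.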

BRD4 BD2 = biological target: T2, BRD4 BD2 (Homo sapiens, UniProt O60885); experiment: AlphaScreen binding assay, BRD4 Bromodomain 2
T2 construct: made in house
Procedure, shortened: as §1

Row | Structure (SMILES) | pIC50 (MV4-11 cells) | pIC50 (BRD4 BD1) | pIC50 (BRD4 BD2)
1 | COC(=O)N1c2ccc(-c3ccc(C(=O)N4CCN(S(C)(=O)=O)CC4)cc3)cc2N(C(=O)OC(C)C)C[C@@H]1C [Example I-573] | 6.30 to 7.00 | 6.00 to 7.00 | 6.30 to 7.30
2 | CC(C)OC(=O)N1C[C@H](C)N(C(=O)C2CC2)c2ccc(-c3ccc(C(=O)N4CC[C@H](O)C4)cc3)cc21 [Example I-574] | < 6.30 | 6.00 to 7.00 | 6.30 to 7.30
3 | COC(=O)N1c2ccc(-c3ccc(C(=O)N4CC[C@H](O)C4)cc3)cc2N(C(=O)OC(C)C)C[C@@H]1C [Example I-575] | 6.30 to 7.00 | 6.00 to 7.00 | 6.30 to 7.30
4 | CC(C)OC(=O)N1C[C@H](C)N(C(=O)C2CC2)c2ccc(-c3ccc(C(=O)N4CC[C@@H](O)C4)cc3)cc21 [Example I-576] | 6.30 to 7.00 | 6.00 to 7.00 | 6.30 to 7.30
5 | COC(=O)N1c2ccc(-c3ccc(C(=O)N4CC[C@@H](O)C4)cc3)cc2N(C(=O)OC(C)C)C[C@@H]1C [Example I-577] | < 6.30 | 6.00 to 7.00 | 6.30 to 7.30
6 | CC(C)OC(=O)N1C[C@H](C)N(C(=O)C2CC2)c2ccc(-c3ccc(C(=O)N4CC(O)C4)cc3)cc21 [Example I-578] | 6.30 to 7.00 | 6.00 to 7.00 | 6.30 to 7.30
7 | COC(=O)N1c2ccc(-c3ccc(C(=O)N4CC(O)C4)cc3)cc2N(C(=O)OC(C)C)C[C@@H]1C [Example I-579] | 6.30 to 7.00 | 6.00 to 7.00 | 6.30 to 7.30
8 | CC(=O)N1c2ccc(-c3ccc(C(=O)N4CC[C@H](O)C4)cc3)cc2N(C(=O)OC(C)C)C[C@@H]1C [Example I-580] | 6.30 to 7.00 | 6.00 to 7.00 | 6.30 to 7.30
9 | CC(=O)N1c2ccc(-c3ccc(C(=O)N4CC[C@@H](O)C4)cc3)cc2N(C(=O)OC(C)C)C[C@@H]1C [Example I-581] | 6.30 to 7.00 | 6.00 to 7.00 | 6.30 to 7.30
10 | CC(=O)N1c2ccc(-c3ccc(C(=O)N4CC(O)C4)cc3)cc2N(C(=O)OC(C)C)C[C@@H]1C [Example I-582] | 6.30 to 7.00 | 6.00 to 7.00 | 6.30 to 7.30
11 | CC(=O)N1c2ccc(-c3ccc(C(=O)NCc4ncco4)cc3)cc2N(C(=O)OC(C)C)C[C@@H]1C [Example I-584] | 6.30 to 7.00 | 6.00 to 7.00 | 6.30 to 7.30
12 | CC(=O)N1c2ccc(-c3ccc(C(=O)N4CC[C@H](N)C4)cc3)cc2N(C(=O)OC(C)C)C[C@@H]1C [Example I-586] | 6.30 to 7.00 | 6.00 to 7.00 | 6.30 to 7.30
13 | CC(=O)N1c2ccc(-c3ccc(C(=O)N4CCC[C@@H](N)C4)cc3)cc2N(C(=O)OC(C)C)C[C@@H]1C [Example I-589] | 6.30 to 7.00 | 6.00 to 7.00 | 6.30 to 7.30
14 | CC(=O)N1c2ccc(-c3ccc(C(=O)N4CCC(N)CC4)cc3)cc2N(C(=O)OC(C)C)C[C@@H]1C [Example I-590] | 6.30 to 7.00 | 6.00 to 7.00 | 6.30 to 7.30
15 | CC(=O)N1c2ccc(-c3ccc(C(=O)N4CCCC[C@@H]4CN)cc3)cc2N(C(=O)OC(C)C)C[C@@H]1C [Example I-591] | 6.30 to 7.00 | 6.00 to 7.00 | 6.30 to 7.30
16 | CC(=O)N1c2ccc(-c3ccc(C(=O)N4CCC[C@@H]4CN)cc3)cc2N(C(=O)OC(C)C)C[C@@H]1C [Example I-592] | 6.30 to 7.00 | 6.00 to 7.00 | 6.30 to 7.30

Row | Structure (SMILES) | pIC50 (MV4-11 cells) | pIC50 (BRD4 BD1) | pIC50 (BRD4 BD2)
17 | CC(=O)N1c2ccc(-c3ccc(C(=O)N4C[C@@H]5C[C@H]4CN5)cc3)cc2N(C(=O)OC(C)C)C[C@@H]1C [Example I-593] | 6.30 to 7.00 | 6.00 to 7.00 | 6.30 to 7.30
18 | CC(=O)N1c2ccc(-c3ccc(C(=O)N[C@H]4C[C@H]5CC[C@@H](C4)N5)cc3)cc2N(C(=O)OC(C)C)C[C@@H]1C [Example I-594] | 6.30 to 7.00 | 6.00 to 7.00 | 6.30 to 7.30
19 | CC(=O)N1c2ccc(-c3cnn(CC4CCS(=O)(=O)CC4)c3)cc2N(C(=O)OC(C)C)C[C@@H]1C [Example I-595] | 6.30 to 7.00 | 6.00 to 7.00 | 6.30 to 7.30
20 | CC(=O)N1c2ccc(-c3cnn(CC(=O)N(C)C4CC4)c3)cc2N(C(=O)OC(C)C)C[C@@H]1C [Example I-596] | 6.30 to 7.00 | 6.00 to 7.00 | > 7.30
21 | CC(=O)N1c2ccc(-c3cnn(CCN4CCCS4(=O)=O)c3)cc2N(C(=O)OC(C)C)C[C@@H]1C [Example I-597] | 6.30 to 7.00 | 6.00 to 7.00 | 6.30 to 7.30
22 | CC(=O)N1c2ccc(-c3cnn(CCn4ccnc4)c3)cc2N(C(=O)OC(C)C)C[C@@H]1C [Example I-598] | 6.30 to 7.00 | 6.00 to 7.00 | 6.30 to 7.30
23 | CC(=O)N1c2ccc(-c3cnn(CC(=O)N4CCCCC4)c3)cc2N(C(=O)OC(C)C)C[C@@H]1C [Example I-599] | 6.30 to 7.00 | 6.00 to 7.00 | > 7.30
24 | CC(=O)N1c2ccc(-c3cnn(CC4(CO)COC4)c3)cc2N(C(=O)OC(C)C)C[C@@H]1C [Example I-600] | 6.30 to 7.00 | > 7.00 | > 7.30
25 | CC(=O)N1c2ccc(-c3cnn(Cc4c[nH]cn4)c3)cc2N(C(=O)OC(C)C)CC1C (stereo not drawn) [Example I-601] | 6.30 to 7.00 | 6.00 to 7.00 | > 7.30
26 | CC(=O)N1c2ccc(-c3cnn(Cc4c(C)noc4C)c3)cc2N(C(=O)OC(C)C)C[C@@H]1C [Example I-602] | 6.30 to 7.00 | 6.00 to 7.00 | > 7.30
27 | CC(=O)N1c2ccc(-c3cnn(CC4CCC4)c3)cc2N(C(=O)OC(C)C)C[C@@H]1C [Example I-603] | 6.30 to 7.00 | 6.00 to 7.00 | 6.30 to 7.30
28 | CC(=O)N1c2ccc(-c3cnn(CC(F)(F)F)c3)cc2N(C(=O)OC(C)C)C[C@@H]1C [Example I-604] | 6.30 to 7.00 | > 7.00 | 6.30 to 7.30
29 | CC(=O)N1c2ccc(-c3cnn(CC4(C)COC4)c3)cc2N(C(=O)OC(C)C)C[C@@H]1C [Example I-605] | 6.30 to 7.00 | 6.00 to 7.00 | 6.30 to 7.30
30 | CC(=O)N1c2ccc(-c3cnn(CCC(N)=O)c3)cc2N(C(=O)OC(C)C)C[C@@H]1C [Example I-606] | 6.30 to 7.00 | 6.00 to 7.00 | > 7.30
31 | CC(=O)N1c2ccc(-c3cnn(CC#N)c3)cc2N(C(=O)OC(C)C)C[C@@H]1C [Example I-607] | 6.30 to 7.00 | 6.00 to 7.00 | 6.30 to 7.30
32 | CC(=O)N1c2ccc(-c3cnn(CC4CCOCC4)c3)cc2N(C(=O)OC(C)C)C[C@@H]1C [Example I-608] | 6.30 to 7.00 | 6.00 to 7.00 | 6.30 to 7.30

More lines, now with the values ahead:

Row | pIC50 (MV4-11 cells) | pIC50 (BRD4 BD1) | pIC50 (BRD4 BD2) | Structure (SMILES)
33 | 6.30 to 7.00 | 6.00 to 7.00 | 6.30 to 7.30 | CC(=O)N1c2ccc(-c3ccc(C(=O)N4CCNCC4)cc3)cc2N(C(=O)OC(C)C)C[C@@H]1C [Example I-557]
34 | 6.30 to 7.00 | 6.00 to 7.00 | 6.30 to 7.30 | CC(C)OC(=O)N1C[C@H](C)N(C(=O)C2CC2)c2ccc(-c3ccc(C(=O)N4CCNCC4)cc3)cc21 [Example I-558]
35 | 6.30 to 7.00 | 6.00 to 7.00 | 6.30 to 7.30 | COC(=O)N1c2ccc(-c3ccc(C(=O)N4CCNCC4)cc3)cc2N(C(=O)OC(C)C)C[C@@H]1C [Example I-559]
36 | 6.30 to 7.00 | > 7.00 | 6.30 to 7.30 | COC(=O)N1c2ccc(-c3ccc(C(=O)N(C)CC(=O)N(C)C)cc3)cc2N(C(=O)OC(C)C)C[C@@H]1C [Example I-561]
37 | 6.30 to 7.00 | 6.00 to 7.00 | 6.30 to 7.30 | CNC(=O)CN(C)C(=O)c1ccc(-c2ccc3c(c2)N(C(=O)OC(C)C)C[C@H](C)N3C(=O)C2CC2)cc1 [Example I-562]
38 | 6.30 to 7.00 | 6.00 to 7.00 | 6.30 to 7.30 | CNC(=O)CN(C)C(=O)c1ccc(-c2ccc3c(c2)N(C(=O)OC(C)C)C[C@H](C)N3C(=O)OC)cc1 [Example I-563]
39 | 6.30 to 7.00 | 6.00 to 7.00 | 6.30 to 7.30 | CC(C)OC(=O)N1C[C@H](C)N(C(=O)C2CC2)c2ccc(-c3ccc(C(=O)N4CC[C@@H](N(C)C)C4)cc3)cc21 [Example I-564]
40 | 6.30 to 7.00 | 6.00 to 7.00 | 6.30 to 7.30 | COC(=O)N1c2ccc(-c3ccc(C(=O)N4CC[C@@H](N(C)C)C4)cc3)cc2N(C(=O)OC(C)C)C[C@@H]1C [Example I-565]
41 | 6.30 to 7.00 | 6.00 to 7.00 | 6.30 to 7.30 | CC(C)OC(=O)N1C[C@H](C)N(C(=O)C2CC2)c2ccc(-c3ccc(C(=O)N4CC[C@H](N(C)C)C4)cc3)cc21 [Example I-566]
42 | 6.30 to 7.00 | 6.00 to 7.00 | 6.30 to 7.30 | COC(=O)N1c2ccc(-c3ccc(C(=O)N4CC[C@H](N(C)C)C4)cc3)cc2N(C(=O)OC(C)C)C[C@@H]1C [Example I-567]
43 | 6.30 to 7.00 | 6.00 to 7.00 | 6.30 to 7.30 | CC(=O)N[C@@H]1CCN(C(=O)c2ccc(-c3ccc4c(c3)N(C(=O)OC(C)C)C[C@H](C)N4C(=O)C3CC3)cc2)C1 [Example I-568]
44 | 6.30 to 7.00 | 6.00 to 7.00 | 6.30 to 7.30 | COC(=O)N1c2ccc(-c3ccc(C(=O)N4CC[C@@H](NC(C)=O)C4)cc3)cc2N(C(=O)OC(C)C)C[C@@H]1C [Example I-569]
45 | 6.30 to 7.00 | 6.00 to 7.00 | 6.30 to 7.30 | CC(=O)N[C@H]1CCN(C(=O)c2ccc(-c3ccc4c(c3)N(C(=O)OC(C)C)C[C@H](C)N4C(=O)C3CC3)cc2)C1 [Example I-570]
46 | 6.30 to 7.00 | 6.00 to 7.00 | 6.30 to 7.30 | COC(=O)N1c2ccc(-c3ccc(C(=O)N4CC[C@H](NC(C)=O)C4)cc3)cc2N(C(=O)OC(C)C)C[C@@H]1C [Example I-571]
47 | 6.30 to 7.00 | 6.00 to 7.00 | < 6.30 | CC(C)OC(=O)N1C[C@H](C)N(C(=O)C2CC2)c2ccc(-c3ccc(C(=O)N4CCN(S(C)(=O)=O)CC4)cc3)cc21 [Example I-572]
